One data set has as its target T1, SPAK (Homo sapiens, UniProt Q9UEW8).
T1 construct: GST (N, cleaved yes); made in house; host or cells: E. coli EcAR7 with Sep-OTS
Nature of the data set: In vitro SPAK ELISA assay monitoring NKCC1 phosphorylation (T^PNKCC1 antibody). To be noted: screening platform, FIG. 21; read-out: in vitro IC50. Format: biochemical. For orientation: ELISA stands for enzyme-linked immunosorbent assay.

The next data set deals with PARP-1. Nature of the data set: PARP-1 Western blot in GBM cells. Format: cell-based, human. The note with it: after 24 hs. The protocol: (§1) FIGS. 40A-40C depict that SPAK/OSR1 inhibition sensitizes GBM to radiation and decreases expression of DNA damage response genes. FIG. 40A: GBM cells were pre-treated for 24 hs with 1 μM (6a) or vehicle control and irradiated. After 72 hs, cells were re-plated to study clonogenicity. […] FIG. 40C: Expression of DNA damage response genes by RNAseq in cells treated with (6a) for 6 hs (dashed line delimits p<0.05).
On the technique in general: Immunoblotting shows a protein as a band on a membrane.

The test system of the next data set is primary human astrocytes. Nature of the data set: Migration of primary human astrocytes. Format: cell-based.
For another data set, the system named is pancreatic cancer cells. Briefly: Pancreatic cancer cell migration in vitro. The note with it: FIG. 36. The class given is cell-based.
The test system of data set [1] is GBM cells. Briefly: Clonogenicity of GBM cells after (6a) pre-treatment and irradiation. The class given is cell-based, human. To be noted: 24 hs pre-treatment 1 μM, irradiated; 15 days after treatment. The protocol: as §1
The test system of data set [2] is GMB intracranial xenograft. Briefly: Human GBM intracranial xenograft mouse model. Format: in vivo. The source says: FIGS. 32A-32B illustrate that (6a) reduces tumor growth in vivo in a human GMB intracranial xenograft mouse model. FIG. 32A: Schematic of the human GMB intracranial xenograft. FIG. 32B: Tumor growth profiles at two (6a) doses.
Data set [3] relates to GBM cell lines. Briefly: Glioblastoma cell proliferation / viability (MTT). The class given is cell-based, human. The note with it: FIG. 30. Here is the method: Glioblastoma cells were plated in triplicates in 96-well plates at a cell density of 10,000 cells per well and incubated with increasing concentrations of (7a) inhibitor for 72 hs. Cell viability was determined by Thiazolyl Blue Tetrazolium Bromide (MTT) assay (Sigma) according to manufacturer instructions. IC50 was determined using GraphPad software by non-linear regression analysis (log (inh) vs. normalized response).

Data set [4] in a line: Formulation/tolerance test, intracranial, healthy tumor free mice. The class given is in vivo. To be noted: 100 μM in DMSO/PEG formulation, intracranially. The protocol:
FIG. 41 depicts treating healthy, tumor free, mice (ms_#) intracranially with a DMSO/PEG formulation containing vehicle or 100 μM (6a).

The subject of another data set is melanoma cells. Nature of the data set: Melanoma cell migration in vitro. The class given is cell-based. The note with it: FIG. 35.
Another data set relates to GBM 612, GBM120. Nature of the data set: Temozolomide IC50 in combination with (6a) in GBM cell lines. The class given is cell-based, human. The text has this: FIG. 39 depicts that the IC50 values for temozolomide (TMZ) decrease 2-4 fold when used in combination (6a) in two different GBM cell lines (GBM 612, GBM120).
Another data set deals with primary GBM cells. Nature of the data set: Nanogrooved pattern glioblastoma cell migration assay. The class given is cell-based, human. The note with it: in vitro. The protocol:
Cell culture: All primary cell lines were derived from intraoperative tissue samples from patients treated surgically for newly diagnosed glioblastoma multiforme without prior treatment. Primary cells were cultured in Dulbecco's Modified Eagle Medium: Nutrient Mixture F-12, B27 serum free supplement (Gibco), 20 ng/mL epidermal growth factor (EGF), and 20 ng/ml fibroblast-derived growth factor (FGF).
Nanogrooved pattern cell migration assay: Migration of glioma cells was quantified using a novel directional migration assay using nano-ridges/grooves of 400 nm in groove width, 400 nm in ridge width, and 500 nm in depth, constructed of transparent poly(urethane acrylate) (PUA), and fabricated using UV-assisted capillary lithography (Kim & Eberwine, 2010, Anal. Bioanl. Chem. 397:3173-3178). Cells were cultured on glass covered with a nanogrooved pattern substratum, which was previously glued onto the bottom surface of the custom-made Mat-tek dish (P35G-20-C). […] Cell migration was quantified using time-lapse microscopy using a motorized inverted microscope (Olympus IX81) equipped with a Cascade 512B II CCD camera and temperature and gas controlling environmental chamber. Phase-contrast and epi-fluorescent cell images were automatically recorded under 4*1.6× objective using the Slidebook 4.1 (Intelligent Imaging Innovations, Denver, CO) for 10 hours at 10 minute intervals. […]

In data set [5] the test system is GBM cells. Nature of the data set: Cell cycle FACS analysis of GBM cell lines. Format: cell-based, human. To be noted: 2 μM. The protocol:
FIG. 38A: Example cell cycle FACS data for 612 cells treated with 2 μM of (6a). FIG. 38B: Cell cycle analysis of GBM cell lines treated with 2 μM of (6a).
Background: A flow cytometer gives signals particle by particle.

For data set [6], the system named is GBM cell lines. Nature of the data set: Annexin V apoptosis assay in GBM cell lines. The class given is cell-based, human. To be noted: 1 μM, four GBM cell lines. The protocol:
FIG. 37 depicts annexin V assays performed on four GBM cell lines after 1 μM of (6a) or vehicle control.

Molecules are shown by their SMILES.

The record followed here is patent US12643891B2, “SPAK/OSR inhibitors and methods of using same” (YALE UNIVERSITY, priority 2019, dated 2026).

One may read the IC50 as the point on the concentration scale where inhibition reaches its midpoint.

Regarding `COc1ccc(Nc2ncc(C#N)c(Nc3ccccc3C(N)=O)n2)cc1N1CCN(C)CC1` [(6a), 2-((5-cyano-2-((4-methoxy-3-(4-methylpiperazin-1-yl)phenyl)amino)pyrimidin-4-yl)amino)benzamide], the IC50 on SPAK was roughly 60 nM. In the data set with PARP-1, the “full length PARP-1 level” value was “decrease full length PARP-1”. Besides, the “activity on primary human astrocytes (migration)” value in the data set with primary human astrocytes was “not active”. Besides, the “pancreatic cancer cell migration” value in the data set on pancreatic cancer cells was “reduced”. For the same molecule, in the data set on GBM cells [1], the “clonogenic potential after irradiation” value is “lowest in the combination treatment”. For the same molecule, in data set [2], the overall survival entry was “extended overall survival”, the tumor growth entry was “reduction in tumor growth” and the tumor volume result is recorded as “reduced tumor volume”. Also, the “proliferation and viability of primary GBM cell lines” value with GBM cell lines [3] is “impedes proliferation and viability”. For the same molecule, the tolerance result in data set [4] is given as “well tolerated”. In addition, the melanoma cell migration entry with melanoma cells was “reduced melanoma cell migration”. The “decrease of temozolomide (TMZ) IC50 in combination with (6a)” value with GBM 612, GBM120 is listed as 2-4 fold. Besides, the “migration of primary GBM cells” value in the data set on primary GBM cells is “reduced migration of primary GBM cells”. Further, the “cell cycle arrest in GBM cells” value in the data set with GBM cells [5] is listed as “induces G2-M arrest”. The “apoptosis in GBM cell lines” value in the data set with GBM cell lines [6] was “induces apoptosis”.
